Results from ChEMBL document CHEMBL1154401, “Therapeutic effect of nisin Z on subclinical mastitis in lactating cows” (Antimicrob Agents Chemother, 2007).

Key:
Staphylococcus aureus [1] = experiment: Sensitivity of Staphylococcus aureus isolated from lactating Holstein bovine subclinical mastitis model at 10 ug/disk after 20 hrs; type: functional; settings: read-out: IZ
Staphylococcus aureus [2] = experiment: Resistance of Staphylococcus aureus isolated from lactating Holstein bovine subclinical mastitis model at 10 ug/disk after 20 hrs; type: functional
[3] = Drug level in milk of lactating bovine subclinical mastitis model at 2.5X10'6 IU after 48 hrs; type: ADME, Bos taurus; settings: cattle
Bos taurus [4] = experiment: Toxicity in Holstein bovine assessed as decreased milk yeild with clots and flakes in milk at 5X10'6 IU, intramammary dosed in right forequarter of mammary gland after morning milking by irritancy test; type: organism-based; settings: cattle, in vivo, other
[5] = Drug level in milk of lactating bovine subclinical mastitis model at 2.5X10'6 IU after 24 hrs; type: ADME, Bos taurus; settings: cattle
Bos taurus [6] = experiment: Toxicity in intramammary dosed Holstein bovine assessed as increase in somatic cell count in dosed after morning milking by irritancy test; type: organism-based; settings: cattle, other
Bos taurus [7] = experiment: Toxicity in Holstein bovine assessed as visible local reaction at 1.25X10'6 IU, intramammary dosed in left hindquarter of mammary gland after morning milking by irritancy test; type: organism-based; settings: cattle, in vivo, other
Bos taurus [8] = experiment: Toxicity in Holstein bovine assessed as decreased milk yeild at 1.25X10'6 IU, intramammary dosed in left hindquarter of mammary gland of mammary gland after morning milking by irritancy test; type: organism-based; settings: cattle, in vivo, other
Bos taurus [9] = experiment: Toxicity in intramammary dosed Holstein bovine assessed as increase in N-acetyl-beta-D-[…] in milk dosed after morning milking by irritancy test; type: organism-based; settings: cattle, in vivo, other
Bos taurus [10] = experiment: Toxicity in Holstein bovine assessed as visible local reaction at 5X10'6 IU, intramammary dosed in right forequarter of mammary gland after morning milking after 24 hrs by irritancy test; type: organism-based; settings: cattle, in vivo, other
Bos taurus [11] = experiment: Toxicity in Holstein bovine assessed as visible local reaction with swollen and tender mammary gland at 5X10'6 IU, intramammary dosed in right forequarter of mammary gland after morning milking by irritancy test; type: organism-based; settings: cattle, in vivo, other
Bos taurus [12] = experiment: Toxicity in Holstein bovine assessed as visible local reaction at 2.5X10'6 IU, intramammary dosed in right hindquarter of mammary gland after morning milking by irritancy test; type: organism-based; settings: cattle, in vivo, other
[13] = Drug level in milk of lactating Holstein bovine mastitis model at 2.5X10'6 IU, intramammary administered once daily for 3 days measured after 24 hrs; type: ADME, Bos taurus; settings: cattle, other
Bos taurus [14] = experiment: Toxicity in Holstein bovine assessed as decreased milk yeild at 2.5X10'6 IU, intramammary dosed in right hindquarter of mammary gland after morning milking by irritancy test; type: organism-based; settings: cattle, in vivo, other
[15] = Drug level in milk of lactating bovine clinical mastitis model at 2.5X10'6 IU, intramammary dosed twice daily for 3 days measured after 12 hrs; type: ADME, organism-based, Bos taurus; settings: cattle, in vivo, other
[16] = Drug level in milk of lactating Holstein bovine mastitis model at 2.5X10'6 IU, intramammary administered once daily for 3 days measured after 48 hrs; type: ADME, Bos taurus; settings: cattle, other
Staphylococcus aureus [17] = experiment: Sensitivity of Staphylococcus aureus isolated from lactating Holstein bovine subclinical mastitis model at 30 ug/disk after 20 hrs; type: functional; settings: read-out: IZ
Staphylococcus aureus [18] = experiment: Resistance of Staphylococcus aureus isolated from lactating Holstein bovine subclinical mastitis model at 30 ug/disk after 20 hrs; type: functional
Bos taurus [19] = experiment: Antiinflammatory activity in lactating Holstein bovine subclinical mastitis model assessed as reduction in number of mammary gland quarters with somatic cell count of >=5X10'5/ml at 2.5X10'6 IU, intramammary dosed after morning milking measured after 2 weeks; type: functional; design: scale not given: the % may be the effect or the level left
Bos taurus [20] = experiment: Antiinflammatory activity in lactating Holstein bovine subclinical mastitis model assessed as reduction in number of mammary gland quarters with somatic cell count of >=5X10'5/ml at 2.5X10'6 IU, intramammary dosed after morning milking measured after 1 week; type: functional; design: scale not given: the % may be the effect or the level left
Bos taurus [21] = experiment: Antiinflammatory activity in lactating Holstein bovine subclinical mastitis model assessed as reduction in N-acetyl-beta-D-[…] activity at 2.5X10'6 IU, intramammary dosed after morning milking measured after 1 week; type: functional
Streptococcus agalactiae = experiment: Antibacterial activity against Streptococcus agalactiae in lactating Holstein bovine subclinical mastitis model assessed as reduction in intramammary infections at 2.5X10'6 IU, intramammary dosed after morning milking relative to control; type: functional; design: scale not given: the % may be the effect or the level left
Bos taurus [22] = experiment: Antiinflammatory activity in lactating Holstein bovine subclinical mastitis model assessed as reduction in N-acetyl-beta-D-[…] activity at 2.5X10'6 IU, intramammary dosed after morning milking measured after 2 weeks; type: functional
Staphylococcus aureus [23] = experiment: Antibacterial activity against Staphylococcus aureus in lactating Holstein bovine subclinical mastitis model assessed as reduction in intramammary infections at 2.5X10'6 IU, intramammary dosed after morning milking relative to control; type: functional; design: scale not given: the % may be the effect or the level left
Staphylococcus aureus [24] = experiment: Antibacterial activity against Staphylococcus aureus isolated from milk of Holstein bovine subclinical mastitis model after 2 hrs; type: functional
Staphylococcus = experiment: Antibacterial activity against coagulase-negative Staphylococcus infected in lactating Holstein bovine subclinical mastitis model assessed as reduction in intramammary infections at 2.5X10'6 IU, intramammary dosed after morning milking relative to control; type: functional; design: scale not given: the % may be the effect or the level left
Staphylococcus aureus [25] = experiment: Resistance of Staphylococcus aureus isolated from lactating Holstein bovine subclinical mastitis model at 5 ug/disk after 20 hrs; type: functional
Staphylococcus aureus [26] = experiment: Sensitivity of Staphylococcus aureus isolated from lactating Holstein bovine subclinical mastitis model at 5 ug/disk after 20 hrs; type: functional; settings: read-out: IZ
[27] = Staphylococcus aureus, 20 h, read-out: IZ

## CC1(C)S[C@@H]2[C@H](NC(=O)Cc3ccccc3)C(=O)N2[C@H]1C(=O)O [PENICILLIN G]
Staphylococcus aureus [1]
  zone of inhibition at 10 µg/disc: ≥ 29 mm
Staphylococcus aureus [2]
  Activity: 80%
Staphylococcus aureus [2]; [27]
  zone of inhibition at 10 µg/disc: ≤ 28 mm

## GENTAMICIN
Staphylococcus aureus [2]
  Activity: 45%

## C=C(NC(=O)[C@@H](NC(=O)[C@H](Cc1c[nH]cn1)NC(=O)[C@@H](NC(=O)[C@H](CO)NC(=O)[C@@H]1CS[C@@H](C)[C@H]2NC(=O)[C@H](C)NC(=O)[C@H](NC(=O)[C@H](CCCCN)NC(=O)[C@H](CCSC)NC(=O)[C@H](CC(N)=O)NC(=O)[C@@H]3CS[C@@H](C)[C@@H](NC(=O)[C@H](CCCCN)NC(=O)[C@@H]4CS[C@@H](C)[C@@H](NC(=O)[C@@H]5CSC[C@@H](NC(=O)/C(=C/C)NC(=O)[C@@H](N)[C@@H](C)CC)C(=O)N[C@@H]([C@@H](C)CC)C(=O)NC(=C)C(=O)N[C@@H](CC(C)C)C(=O)N5)C(=O)N5CCC[C@H]5C(=O)NCC(=O)N4)C(=O)NCC(=O)N[C@@H](C)C(=O)N[C@@H](CC(C)C)C(=O)N[C@@H](CCSC)C(=O)NCC(=O)N3)[C@H](C)SC[C@H](NC2=O)C(=O)N[C@@H](CC(N)=O)C(=O)N1)[C@@H](C)CC)C(C)C)C(=O)N[C@@H](CCCCN)C(=O)O
[3]
  Drug uptake: 15 IU/ml
Bos taurus [4]
  Activity: Toxic
[5]
  Activity: 83 IU/ml
Bos taurus [6]
  Activity: Dose-dependent effect
Bos taurus [7]
  Activity: Non-toxic
Bos taurus [8]
  Activity: Non-toxic
Bos taurus [9]
  Activity: Dose-dependent effect
Bos taurus [10]
  Activity: Toxic
Bos taurus [11]
  Activity: Toxic
Bos taurus [12]
  Activity: Non-toxic
[13]
  Drug uptake: 75.8 IU/ml
Bos taurus [14]
  Activity: Non-toxic
[15]
  Drug uptake: 4.5 IU/ml
[16]
  Drug uptake: 5.7 IU/ml

## Cc1nnc(SCC2=C(C(=O)O)N3C(=O)[C@@H](NC(=O)Cn4cnnn4)[C@H]3SC2)s1 [CEFAZOLIN]
Staphylococcus aureus [17]
  zone of inhibition at 30 µg/disc: ≥ 18 mm
Staphylococcus aureus [18]
  Activity: 5%
Staphylococcus aureus [18]; [27]
  zone of inhibition at 30 µg/disc: ≤ 14 mm

## C=C(NC(=O)[C@@H](NC(=O)[C@H](Cc1cnc[nH]1)NC(=O)[C@@H](NC(=O)[C@H](CO)NC(=O)[C@@H]1CS[C@@H](C)[C@H]2NC(=O)[C@H](C)NC(=O)[C@H](NC(=O)[C@H](CCCCN)NC(=O)[C@H](CCSC)NC(=O)[C@H](CC(N)=O)NC(=O)[C@@H]3CS[C@@H](C)[C@@H](NC(=O)[C@H](CCCCN)NC(=O)[C@@H]4CS[C@@H](C)[C@@H](NC(=O)[C@@H]5CSC[C@@H](NC(=O)/C(=C/C)NC(=O)[C@@H](N)[C@@H](C)CC)C(=O)N[C@@H]([C@@H](C)CC)C(=O)NC(=C)C(=O)N[C@@H](CC(C)C)C(=O)N5)C(=O)N5CCC[C@H]5C(=O)NCC(=O)N4)C(=O)NCC(=O)N[C@@H](C)C(=O)N[C@@H](CC(C)C)C(=O)N[C@@H](CCSC)C(=O)NCC(=O)N3)[C@H](C)SC[C@H](NC2=O)C(=O)N[C@@H](CC(N)=O)C(=O)N1)[C@@H](C)CC)C(C)C)C(=O)N[C@@H](CCCCN)C(=O)O
Bos taurus [19]
  Activity: 70.5%
Bos taurus [20]
  Activity: 58.7%
Bos taurus [21]
  Activity: 26.2 U/ml
Streptococcus agalactiae
  Activity: 90.9%
Bos taurus [22]
  Activity: 28.9 U/ml
Staphylococcus aureus [23]
  Activity: 50%
Staphylococcus aureus [24]
  MIC: 75.5 IU/ml
Staphylococcus
  Activity: 58.8%

## CCn1cc(C(=O)O)c(=O)c2cc(F)c(N3CCNCC3)cc21 [NORFLOXACIN]
Staphylococcus aureus [25]
  Activity: 75%
Staphylococcus aureus [25]; [27]
  zone of inhibition at 5 µg/disc: ≤ 12 mm
Staphylococcus aureus [26]
  zone of inhibition at 5 µg/disc: ≥ 17 mm
